In patent US20250084095A1, “Aminopyrimidine Derivatives as Cyclin-Dependent Kinase Inhibitors” (Accutar Biotechnology Inc., priority 2023, published 2025) one finds IC50 and GI50 data, which are given here for 15 molecules.

pIC50: −log10 of the molar value.

Common to all, as to assay type: cell-based
Assay [1] deals with Phospho-Rb (Ser807/811) in SW1573-CDK6 KO cells. In words: Phospho-Rb expression inhibition in SW1573-CDK6 KO cells quantified by in cell Western. Particulars: Homo sapiens, 24 hours, read-out: SW1573 CDK6 KO pRb IC50. As for the experimental part:
(§1) Parental SW1573 cells were obtained from the American Type Culture Collection (ATCC). CDK4 or CDK6 gene in […] cells was knocked out using the CRISPR-Cas9 technology. First, gRNA complex of CDK4 or CDK6 was prepared with Alt-R CRISPR-Cas9 tracrRNA and crRNA CDK4 (5′-[…]-3′ (SEQ ID NO: 4)) or CDK6 (5′-[…]-3′ (SEQ ID NO. 5)) (IDT-Integrated DNA Technologies), and then ribonucleoprotein (RNP) complex of CDK4 or CDK6 was prepared with respective gRNA complex and Alt-R S.p. Cas9 Nuclease V3 (IDT-Integrated DNA Technologies). Next, 5×10^4/10 μL SWJ1573 cells were electroporated with the CDK4 or CDK6 RNP complex and Alt-R Cas9 Electroporation Enhancer using Neon Transfection System (Thermo Fisher). Cells were then plated in a 96-well plate to select single clones for validation of CDK4 or CDK6 knockout by western blot analysis.
(§2) MCF7 cells were obtained from American Type Culture Collection (ATCC, HTB-22). SW1573-CDK6 KO and SW1573-CDK4 KO cells were generated by the CRISPR-Cas9 technology. All cells were plated in 96-well plates (VWR #10062-900, or Corning #3904) in 90 uL culture medium at a density of 20,000 cells/well in the respective growth medium containing 10% FBS and 1% Penicillin Streptomycin, and then incubated at 37° C. overnight. The following day, the test compound was administered to the cells by using 1000× compound stock solution prepared in DMSO at various concentrations. 1000× compound stock solution was first diluted in culturing medium to 10×, then 10 uL compound medium was added to each well in the cell plates. After administration of the compound, the cells were then incubated at 37° C. for 24 hours. Upon completion, the cells were washed with PBS briefly. 150 uL/well of 4% formaldehyde was added and the plates were incubated at room temperature for 20 mins. The cells were washed with PBS briefly, and permeabilized with 150 uL/well of ice cold 100% methanol for 10 mins. The cells were washed with PBS briefly and blocked with 100 uL/well LI-COR blocking buffer for 1 hr at room temperature with gentle shaking. The cells were incubated overnight at 4° C. with 50 uL primary antibody rabbit anti-Phospho-Rb (Ser807/811) (1: 500, Cell Signaling, #8516) and anti-Rb (1:200, Santa Cruz, sc-73598) diluted in Intercept Blocking Buffer (LI-COR, #927-60001) containing 0.1% Tween 20. The next day, the cells were washed with 200 uL PBS containing 0.1% Tween 20, 5×5 mins at room temperature with gentle shaking, and incubated with 50 uL secondary antibody, IRDye® 800CW Goat anti-Rabbit IgG (1:1000, LI-COR, #926-32211) and IRDye®680RD Goat anti-Mouse IgG (1:1000, LI-COR, #926-68070), in LI-COR blocking buffer with 0.2% Tween 20 for 1 hr at room temperature with gentle shaking. The cells were washed with 200 uL PBS containing 0.1% Tween 20, 5×5 mins at room temperature with gentle shaking. The cells were washed with PBS for 5 mins. 100 uL fresh PBS was added to each well and the plates were imaged on a LI-COR Odyssey CLX plate reader.

The next assay has as its system 22RV1 cells. In words: Cell growth inhibition of 22RV1 cells (CellTiter-Glo). Particulars: Homo sapiens, 22Rv1, 120 h, 5 days, CellTiter-Glo, read-out: 22RV1 Cell Growh GI50. A digest of the protocol:
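22RV1 cells were plated in RPMI1640 with FBS (20% in one version, 10% in the other) and dosed next day at various concentrations from DMSO stocks. After 5 days at 37 °C, viability was measured by CellTiter-Glo luminescence.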
(Cellular ATP, detected with luciferase, serves as a proxy for viable cell number.)

Assay [2] has as its system Phospho-Rb (Ser807/811) in SW1573-CDK4 KO cells. In words: Phospho-Rb expression inhibition in SW1573-CDK4 KO cells quantified by in cell Western. The note with it: Homo sapiens, 24 hours, read-out: SW1573 CDK4 KO pRb IC50. As for the experimental part: as §1, §2

The pIC50 is the IC50 on a negative log10 scale, so that one unit is a factor of ten. As usually defined, the GI50 is the concentration that inhibits growth by half. With `CC(C)n1c([C@@H]2CC2(F)F)nc2c(F)cc(-c3nc(N[C@@H]4C[C@H]5CO[C@H](O5)[C@H]4O)ncc3Cl)cc21` [Compound 216, (1S,3R,4S,5R)-3-((5-chloro-4-(2-((S)-2,2-difluorocyclopropyl)-4-fluoro-1-isopropyl-1H-benzo[d]imidazol-6-yl)pyrimidin-2-yl)amino)-6,8-dioxabicyclo[3.2.1]octan-4-ol], the pIC50 was no less than 7.40 in assay [1] and 6.00 to 6.82 in assay [2]. Moreover, the GI50 in the assay on 22RV1 cells was no more than 120 nM.
In the same order, the values of `Cc1c(-c2nc(N[C@@H]3C[C@H]4CO[C@H](O4)[C@H]3O)ncc2Cl)sc2c(C(C)C)cn(C)c(=O)c12` [Compound 223, 2-(5-chloro-2-(((1S,3R,4S,5R)-4-hydroxy-6,8-dioxabicyclo[3.2.1]octan-3-yl)amino)pyrimidin-4-yl)-7-isopropyl-3,5-dimethylthieno[3,2-c]pyridin-4(5H)-one] are no less than 7.40, 6.82 to 7.40 and no more than 120 nM.
For `Cc1c(-c2nc(N[C@@H]3C[C@H]4CO[C@H](O4)[C@H]3O)ncc2C(F)F)sc2c(C(C)C)cn(C)c(=O)c12` [Compound 227, 2-(5-(difluoromethyl)-2-(((1S,3R,4S,5R)-4-hydroxy-6,8-dioxabicyclo[3.2.1]octan-3-yl)amino)pyrimidin-4-yl)-7-isopropyl-3,5-dimethylthieno[3,2-c]pyridin-4(5H)-one], the results for the pIC50 in assay [1] and in assay [2] were no less than 7.40 and 6.00 to 6.82, respectively. Besides, the GI50 in the assay with 22RV1 cells is no more than 120 nM.
On to `CCn1cc(C(C)C)c2sc(-c3nc(N[C@@H]4C[C@H]5CO[C@H](O5)[C@H]4O)ncc3Cl)c(C)c2c1=O` [Compound 230, 5-ethyl-2-(5-chloro-2-(((1S,3R,4S,5R)-4-hydroxy-6,8-dioxabicyclo[3.2.1]octan-3-yl)amino)pyrimidin-4-yl)-7-isopropyl-3-methylthieno[3,2-c]pyridin-4(5H)-one], for which the results for the pIC50 in assay [1] and in assay [2] were no less than 7.40 and 6.00 to 6.82, respectively. Moreover, the GI50 in the assay on 22RV1 cells lay within 120 to 450 nM.
As for `CC(C)(O)c1cnc2c(F)cc(-c3nc(N[C@@H]4C[C@H]5CO[C@H](O5)[C@H]4O)ncc3Cl)cc2c1Cl` [Compound 252, (1S,3R,4S,5R)-3-((5-chloro-4-(4-chloro-8-fluoro-3-(2-hydroxypropan-2-yl)quinolin-6-yl)pyrimidin-2-yl)amino)-6,8-dioxabicyclo[3.2.1]octan-4-ol], the pIC50 in assay [1] was no less than 7.40; in assay [2], 6.00 to 6.82. For the same molecule, the GI50 with 22RV1 cells was no more than 120 nM.
For the molecule `CC(C)(O)c1cnc2c(F)cc(-c3nc(N[C@@H]4C[C@H]5CO[C@H](O5)[C@H]4O)ncc3F)cc2c1Cl` [Compound 255, (1S,3R,4S,5R)-3-((4-(4-chloro-8-fluoro-3-(2-hydroxypropan-2-yl)quinolin-6-yl)-5-fluoropyrimidin-2-yl)amino)-6,8-dioxabicyclo[3.2.1]octan-4-ol], the pIC50 is no less than 7.40 in assay [1] and less than 6.00 in assay [2]. Besides, in the assay on 22RV1 cells, the GI50 is no more than 120 nM.
As for `Cc1c(C(C)(C)O)cnc2c(F)cc(-c3nc(N[C@@H]4C[C@H]5CO[C@H](O5)[C@H]4O)ncc3F)cc12` [Compound 256, (1S,3R,4S,5R)-3-((5-fluoro-4-(8-fluoro-3-(2-hydroxypropan-2-yl)-4-methylquinolin-6-yl)pyrimidin-2-yl)amino)-6,8-dioxabicyclo[3.2.1]octan-4-ol], the pIC50 in assay [1] was no less than 7.40; in assay [2], less than 6.00. For the same molecule, the GI50 in the assay with 22RV1 cells is no more than 120 nM.
For `Cc1c(C(C)(C)O)cnc2c(F)cc(-c3nc(N[C@@H]4C[C@H]5CO[C@H](O5)[C@H]4O)ncc3Cl)cc12` [Compound 257, (1S,3R,4S,5R)-3-((5-chloro-4-(8-fluoro-3-(2-hydroxypropan-2-yl)-4-methylquinolin-6-yl)pyrimidin-2-yl)amino)-6,8-dioxabicyclo[3.2.1]octan-4-ol] the same measures were no less than 7.40, 6.00 to 6.82 and no more than 120 nM.
For the molecule `Cc1c(-c2nc(N[C@@H]3C[C@H]4CO[C@H](O4)[C@H]3O)ncc2Cl)sc2c(C(C)C)cnnc12` [Compound 259, (1S,3R,4S,5R)-3-((5-chloro-4-(4-isopropyl-7-methylthieno[3,2-c]pyridazin-6-yl)pyrimidin-2-yl)amino)-6,8-dioxabicyclo[3.2.1]octan-4-ol], the pIC50 is no less than 7.40 in assay [1] and 6.00 to 6.82 in assay [2]. Further, the GI50 with 22RV1 cells is no more than 120 nM.
In the same order, the values of `COC(=O)N1CC[C@@H](c2nc3c(F)cc(-c4nc(N[C@@H]5C[C@H]6CO[C@H](O6)[C@H]5O)ncc4F)cc3n2C(C)C)C1` [Compound 265, methyl (R)-3-(4-fluoro-6-(5-fluoro-2-(((1S,3R,4S,5R)-4-hydroxy-6,8-dioxabicyclo[3.2.1]octan-3-yl)amino)pyrimidin-4-yl)-1-isopropyl-1H-benzo[d]imidazol-2-yl)pyrrolidine-1-carboxylate] are 6.82 to 7.40, less than 6.00 and 120 to 450 nM.
Turning to `CC(C)n1c([C@@H]2CCOC2)nc2c(F)cc(-c3nc(N[C@@H]4C[C@H]5CO[C@H](O5)[C@H]4O)ncc3Cl)cc21` [Compound 268, (1S,3R,4S,5R)-3-((5-chloro-4-(4-fluoro-1-isopropyl-2-((S)-tetrahydrofuran-3-yl)-1H-benzo[d]imidazol-6-yl)pyrimidin-2-yl)amino)-6,8-dioxabicyclo[3.2.1]octan-4-ol], the pIC50 in assay [1] is 6.82 to 7.40; in assay [2], less than 6.00. Besides, in the assay with 22RV1 cells, the GI50 was no more than 120 nM.
For `CC(C)n1c([C@H]2CCOC2)nc2c(F)cc(-c3nc(N[C@@H]4C[C@H]5CO[C@H](O5)[C@H]4O)ncc3F)cc21` [Compound 269, (1S,3R,4S,5R)-3-((5-fluoro-4-(4-fluoro-1-isopropyl-2-((R)-tetrahydrofuran-3-yl)-1H-benzo[d]imidazol-6-yl)pyrimidin-2-yl)amino)-6,8-dioxabicyclo[3.2.1]octan-4-ol] the same measures were 6.00 to 6.82, less than 6.00 and 120 to 450 nM.
In the same order, the values of `CC(C)n1c([C@@H]2CCOC2)nc2c(F)cc(-c3nc(N[C@@H]4C[C@H]5CO[C@H](O5)[C@H]4O)ncc3F)cc21` [Compound 270, (1S,3R,4S,5R)-3-((5-fluoro-4-(4-fluoro-1-isopropyl-2-((S)-tetrahydrofuran-3-yl)-1H-benzo[d]imidazol-6-yl)pyrimidin-2-yl)amino)-6,8-dioxabicyclo[3.2.1]octan-4-ol] are 6.82 to 7.40, less than 6.00 and 120 to 450 nM.
For `Cc1c(-c2nc(N[C@@H]3C[C@H]4CO[C@H](O4)[C@H]3O)ncc2Cl)sc2c(Cl)c(C(C)(C)O)cnc12` [Compound 275, (1S,3R,4S,5R)-3-((5-chloro-4-(7-chloro-6-(2-hydroxypropan-2-yl)-3-methylthieno[3,2-b]pyridin-2-yl)pyrimidin-2-yl)amino)-6,8-dioxabicyclo[3.2.1]octan-4-ol] the same measures were 6.82 to 7.40, less than 6.00 and 450 to 3000 nM.
Turning to `Cc1c(-c2nc(N[C@@H]3C[C@H]4CO[C@H](O4)[C@H]3O)ncc2F)sc2c(Cl)c(C(C)(C)O)cnc12` [Compound 276, (1S,3R,4S,5R)-3-((4-(7-chloro-6-(2-hydroxypropan-2-yl)-3-methylthieno[3,2-b]pyridin-2-yl)-5-fluoropyrimidin-2-yl)amino)-6,8-dioxabicyclo[3.2.1]octan-4-ol], the pIC50 is no less than 7.40 in assay [1] and 6.00 to 6.82 in assay [2]. Besides, in the assay with 22RV1 cells, the 50% growth inhibitory concentration (GI50) fell in the range of 120 to 450 nM.
